The record followed here is patent US20230312587A1, “PTERIDINONE COMPOUNDS AND USES THEREOF” (Vertex Pharmaceutical Incorporated, priority 2018, published 2023).

Where two headings read alike, the source gives them in different places.

The test has as its system β-catenin-TCF-mediated reporter transcription activity in Colo 205 cells. Briefly: Colo 205 reporter assay (TCF/LEF luciferase). The format is cell-based. Conditions: Colo 205 TCF/LEF luciferase reporter, five hours after addition of compound, read-out: TCF reporter Colo205 IC50. Summed up: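 Luciferase signal from a TCF/LEF-driven reporter, stably integrated in Colo 205 colon cancer cells, was measured 5 h after compound addition.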

Take `CC[C@H]1C(=O)Nc2c(C)nc(N[C@H]3C[C@H](N(C)c4cnc(C(F)(F)F)cn4)C3)nc2N1C` [Compound 682, (S)-7-ethyl-4,8-dimethyl-2-((trans-3-(methyl(5-(trifluoromethyl)pyrazin-2-yl)amino)cyclobutyl)amino)-7,8-dihydropteridin-6(5H)-one]: the IC50 (Homo sapiens, COLO 205, 5 h) was less than 300 nM.
Take `Cc1nc(N[C@H]2C[C@H](N(C)c3cnc(C(F)(F)F)cn3)C2)nc2c1NC(=O)[C@H](C)N2C` [Compound 683, (S)-4,7,8-trimethyl-2-((trans-3-(methyl(5-(trifluoromethyl)pyrazin-2-yl)amino)cyclobutyl)amino)-7,8-dihydropteridin-6(5H)-one]: the IC50 (Homo sapiens, COLO 205, 5 h) fell in the range of 300 to 1000 nM.
For `Cc1nc(N[C@H]2C[C@@H](Cn3ccc(C(F)(F)F)n3)C2)nc2c1NC(=O)[C@H](C(C)C)N2C` [Compound 690, (S)-7-isopropyl-4,8-dimethyl-2-((cis-3-((3-(trifluoromethyl)-1H-pyrazol-1-yl)methyl)cyclobutyl)amino)-7,8-dihydropteridin-6(5H)-one], the IC50 (Homo sapiens, COLO 205, 5 h) was less than 300 nM.
`CO[C@H](C)[C@H]1C(=O)Nc2c(C)nc(N[C@H]3C[C@@H](Cn4ccc(C(F)(F)F)n4)C3)nc2N1C` [Compound 691, (S)-7-((R)-1-methoxyethyl)-4,8-dimethyl-2-((cis-3-((3-(trifluoromethyl)-1H-pyrazol-1-yl)methyl)cyclobutyl)amino)-7,8-dihydropteridin-6(5H)-one]: under “Homo sapiens, COLO 205, 5 h”, the IC50 is less than 300 nM.
With `CC[C@H]1C(=O)Nc2c(C)nc(N[C@H]3C[C@@H](Cn4ccc(C(F)(F)F)n4)C3)nc2N1C` [Compound 692, (S)-7-ethyl-4,8-dimethyl-2-((cis-3-((3-(trifluoromethyl)-1H-pyrazol-1-yl)methyl)cyclobutyl)amino)-7,8-dihydropteridin-6(5H)-one], the IC50 (Homo sapiens, COLO 205, 5 h) lay in the range of 300 to 1000 nM.
For the compound `Cc1nc(N[C@H]2C[C@@H](COc3ccnn3C)C2)nc2c1NC(=O)[C@H](C(C)C)N2C` [Compound 693, (S)-7-isopropyl-4,8-dimethyl-2-((cis-3-(((1-methyl-1H-pyrazol-5-yl)oxy)methyl)cyclobutyl)amino)-7,8-dihydropteridin-6(5H)-one], for the setting “Homo sapiens, COLO 205, 5 h”, the 50% inhibitory concentration (IC50) is no less than 5000 nM.
As to `Cc1nc(N[C@H]2C[C@@H](COc3cnc(C#N)c(F)c3)C2)nc2c1NC(=O)[C@H](C(C)C)N2C` [Compound 694, 3-fluoro-5-((cis-3-(((S)-7-isopropyl-4,8-dimethyl-6-oxo-5,6,7,8-tetrahydropteridin-2-yl)amino)cyclobutyl)methoxy)picolinonitrile], under “Homo sapiens, COLO 205, 5 h”, the IC50 was less than 300 nM.
As to `Cc1nc(N[C@H]2C[C@@H](Cn3nc(Cl)c(C#N)n3)C2)nc2c1NC(=O)[C@H](C(C)C)N2C` [Compound 695, 5-chloro-2-((cis-3-(((S)-7-isopropyl-4,8-dimethyl-6-oxo-5,6,7,8-tetrahydropteridin-2-yl)amino)cyclobutyl)methyl)-2H-1,2,3-triazole-4-carbonitrile], the IC50 (Homo sapiens, COLO 205, 5 h) is less than 300 nM.
Still for that read-out and setting: the value for `CC(=O)c1ccc(OC[C@H]2C[C@@H](Nc3nc(C)c4c(n3)N(C)[C@@H](C(C)C)C(=O)N4)C2)cn1` [Compound 696, (S)-2-((cis-3-(((6-acetylpyridin-3-yl)oxy)methyl)cyclobutyl)amino)-7-isopropyl-4,8-dimethyl-7,8-dihydropteridin-6(5H)-one] was 300 to 1000 nM; that for `Cc1nc(N[C@H]2C[C@@H](Cn3ccc(C(F)(F)F)n3)C2)nc2c1NC(=O)[C@H](C)N2C` [Compound 698, (S)-4,7,8-trimethyl-2-((cis-3-((3-(trifluoromethyl)-1H-pyrazol-1-yl)methyl)cyclobutyl)amino)-7,8-dihydropteridin-6(5H)-one] was 300 to 1000 nM; that for `Cc1nc(NC2CN(C(=O)C34CC(C(F)(F)F)(C3)C4)C2)nc2c1NC(=O)[C@H](C(C)C)N2C` [Compound 699, (S)-7-isopropyl-4,8-dimethyl-2-((1-(3-(trifluoromethyl)bicyclo[1.1.1]pentane-1-carbonyl)azetidin-3-yl)amino)-7,8-dihydropteridin-6(5H)-one] was 1000 to 5000 nM.
As to `COCC1(C)C(=O)Nc2c(C)nc(NCc3cnn(Cc4ccc(C(F)(F)F)nc4)c3)nc2N1C` (stereo not drawn) [Compound 703, 7-(methoxymethyl)-4,7,8-trimethyl-2-(((1-((6-(trifluoromethyl)pyridin-3-yl)methyl)-1H-pyrazol-4-yl)methyl)amino)-7,8-dihydropteridin-6(5H)-one], for the setting “Homo sapiens, COLO 205, 5 h”, the IC50 was 300 to 1000 nM.
`COCC1(C)C(=O)Nc2c(C)nc(NCc3cnn(Cc4cc(C(F)(F)F)nn4C)c3)nc2N1C` (stereo not drawn) [Compound 704, 7-(methoxymethyl)-4,7,8-trimethyl-2-(((1-((1-methyl-3-(trifluoromethyl)-1H-pyrazol-5-yl)methyl)-1H-pyrazol-4-yl)methyl)amino)-7,8-dihydropteridin-6(5H)-one]: the half-maximal inhibitory concentration (IC50) (Homo sapiens, COLO 205, 5 h) was less than 300 nM.
As for `COCC1(C)C(=O)Nc2c(C)nc(NCc3cnn(Cc4ccc(C(F)(F)F)nc4)c3)nc2N1C` (stereo not drawn) [Compound 707, 7-(methoxymethyl)-4,7,8-trimethyl-2-(((1-((6-(trifluoromethyl)pyridin-3-yl)methyl)-1H-pyrazol-4-yl)methyl)amino)-7,8-dihydropteridin-6(5H)-one], the IC50 was in the range of 300 to 1000 nM.
In the case of `COCC1(C)C(=O)Nc2c(C)nc(NCc3cnn(Cc4cc(C(F)(F)F)nn4C)c3)nc2N1C` (stereo not drawn) [Compound 709, 7-(methoxymethyl)-4,7,8-trimethyl-2-(((1-((1-methyl-3-(trifluoromethyl)-1H-pyrazol-5-yl)methyl)-1H-pyrazol-4-yl)methyl)amino)-7,8-dihydropteridin-6(5H)-one], the IC50 was 300 to 1000 nM.
As to `CO[C@H](C)[C@H]1C(=O)Nc2c(C)nc(N[C@H]3C[C@@H](CNc4cnc(C(F)(F)F)cn4)C3)nc2N1C` [Compound 712, (S)-7-((R)—1-methoxyethyl)-4,8-dimethyl-2-((cis-3-(((5-(trifluoromethyl)pyrazin-2-yl)amino)methyl)cyclobutyl)amino)-7,8-dihydropteridin-6(5H)-one], under “Homo sapiens, COLO 205, 5 h”, the IC50 is less than 300 nM.
Still for that read-out and setting: to `CC[C@H]1C(=O)Nc2c(C)nc(N[C@H]3C[C@@H](CNc4cnc(C(F)(F)F)cn4)C3)nc2N1C` [Compound 713, (S)-7-ethyl-4,8-dimethyl-2-((cis-3-(((5-(trifluoromethyl)pyrazin-2-yl)amino)methyl)cyclobutyl)amino)-7,8-dihydropteridin-6(5H)-one] belongs less than 300 nM.
On the same count and under the same terms, to `Cc1nc(N[C@H]2C[C@@H](CNc3cnc(C(F)(F)F)cn3)C2)nc2c1NC(=O)[C@H](C)N2C` [Compound 714, (S)-4,7,8-trimethyl-2-((cis-3-(((5-(trifluoromethyl)pyrazin-2-yl)amino)methyl)cyclobutyl)amino)-7,8-dihydropteridin-6(5H)-one] belongs less than 300 nM; to `Cc1nc(N[C@H]2C[C@@H](Nc3ncc(C#N)cc3F)C2)nc2c1NC(=O)[C@H](C(C)C)N2C` [Compound 715, 5-fluoro-6-((cis-3-(((S)-7-isopropyl-4,8-dimethyl-6-oxo-5,6,7,8-tetrahydropteridin-2-yl)amino)cyclobutyl)amino)nicotinonitrile], 1000 to 5000 nM; to `COCC1(C)C(=O)Nc2c(C)nc(NC3CN(C(=O)c4cc(F)c(F)c(F)c4)C3)nc2N1C` (stereo not drawn) [Compound 721, 7-(methoxymethyl)-4,7,8-trimethyl-2-((1-(3,4,5-trifluorobenzoyl)azetidin-3-yl)amino)-7,8-dihydropteridin-6(5H)-one], 1000 to 5000 nM.
Take `COCC1(C)C(=O)Nc2c(C)nc(NC3CN(C(=O)c4cc(F)c(F)c(F)c4)C3)nc2N1C` (stereo not drawn) [Compound 722, 7-(methoxymethyl)-4,7,8-trimethyl-2-((1-(3,4,5-trifluorobenzoyl)azetidin-3-yl)amino)-7,8-dihydropteridin-6(5H)-one]: the IC50 fell in the range of 1000 to 5000 nM.
For the compound `Cc1nc(N[C@H]2C[C@H](Oc3ccc(C(F)(F)F)nc3)C2)nc2c1NC(=O)[C@H](COC(C)(C)C)N2C` [Compound 725, (S)-7-(tert-butoxymethyl)-4,8-dimethyl-2-((trans-3-((6-(trifluoromethyl)pyridin-3-yl)oxy)cyclobutyl)amino)-7,8-dihydropteridin-6(5H)-one], the IC50 (Homo sapiens, COLO 205, 5 h) is less than 300 nM.
As to `Cc1nc(NCc2cnn(Cc3ccc(C(F)(F)F)nc3)c2)nc2c1NC(=O)[C@H](C(C)(C)O)N2C` [Compound 726, (S)-7-(2-hydroxypropan-2-yl)-4,8-dimethyl-2-(((1-((6-(trifluoromethyl)pyridin-3-yl)methyl)-1H-pyrazol-4-yl)methyl)amino)-7,8-dihydropteridin-6(5H)-one], the IC50 (Homo sapiens, COLO 205, 5 h) fell in the range of 1000 to 5000 nM.
On the same count and under the same terms, to `Cc1nc(NCc2cnn(CC3CC(F)(F)C3)c2)nc2c1NC(=O)[C@H](C(C)C)N2C` [Compound 727, (S)-2-(((1-((3,3-difluorocyclobutyl)methyl)-1H-pyrazol-4-yl)methyl)amino)-7-isopropyl-4,8-dimethyl-7,8-dihydropteridin-6(5H)-one] belongs less than 300 nM; to `CO[C@H](C)[C@H]1C(=O)Nc2c(C)nc(NCc3cnn(CC4CC(F)(F)C4)c3)nc2N1C` [Compound 728, (S)-2-(((1-((3,3-difluorocyclobutyl)methyl)-1H-pyrazol-4-yl)methyl)amino)-7-((R)-1-methoxyethyl)-4,8-dimethyl-7,8-dihydropteridin-6(5H)-one], less than 300 nM; to `Cc1nc(NCc2cnn(Cc3cc(F)c(F)c(F)c3)c2)nc2c1NC(=O)[C@H](C(C)(C)O)N2C` [Compound 729, (S)-7-(2-hydroxypropan-2-yl)-4,8-dimethyl-2-(((1-(3,4,5-trifluorobenzyl)-1H-pyrazol-4-yl)methyl)amino)-7,8-dihydropteridin-6(5H)-one], less than 300 nM.
Regarding `Cc1nc(N[C@H]2C[C@H](n3ccc(C(F)(F)F)n3)C2)nc2c1NC(=O)[C@H](C(C)C)N2C` [Compound 730, (S)-7-isopropyl-4,8-dimethyl-2-((trans-3-(3-(trifluoromethyl)-1H-pyrazol-1-yl)cyclobutyl)amino)-7,8-dihydropteridin-6(5H)-one], the IC50 (Homo sapiens, COLO 205, 5 h) is 1000 to 5000 nM.

The term IC50 denotes the concentration at which inhibition is half-maximal.
